Literature values in patent publication US20230364199A1, “IMPROVEMENT OF PHYSICAL AND MENTAL WELL-BEING OF PATIENTS WITH HYPOPARATHYROIDISM” (ASCENDIS PHARMA BONE DISEASES A/S, priority 2020, published 2023).

B1: PTH 1-84: PTH polypeptide of SEQ ID NO: 1 (PTH 1-84) (protein, listed as Homo sapiens)
chain: SVSEIQLMHNLGKHLNSMERVEWLRKKLQDVHNFVALGAPLAPRDAGSQRPRKKEDNVLVESHEKSLGEADKADVNVLTKAKSQ

Assays:
[1] = tested on: patients with hypoparathyroidism
[2] = tested on: patients with hypoparathyroidism; settings: 54 patients, after 1 year of treatment, every other day
[3] = tested on: adults with chronic hypoparathyroidism; settings: supplements adjusted to target serum calcium

Row | Molecule | 9-min walk-run test ([1]; seven patients, before and after 3 years of treatment, twice a day) | fatigue and physical endurance described by patients ([1]; several patients, during PTH treatment) | QoL, mental component score and physical component score (RAND 36-Item Health Survey) [2] | QoL (SF-36), between-group differences versus placebo [3]
1 | PTH 1-34: PTH polypeptide of SEQ ID NO: 51 (PTH 1-34) (SVSEIQLMHNLGKHLNSMERVEWLRKKLQDVHNF; human PTH 1-34) | no significant changes | less fatigue and greater physical endurance |  | 
2 | B1 |  |  | improvement in QoL | not statistically significant
